Laboratory results from patent US20010038832A1, “Nitric oxide and analogues thereof effectuate sensitization of neoplasm and immunologically undesired tissues to cytotoxicity” (priority 2000, published 2001).

What was measured:
Assay type in all cases: cell-based
[1] = test system: NO production by iNOS in AD10 cells; experiment: NO2-/NO3- release into culture medium (Griess reaction), AD10 cells; conditions: FIG. 1B
Protocol: (§1) The activity of iNOS and generated NO were monitored by the release of NO2^−/NO3^− into the cell culture medium as determined by the Griess reaction.
(§2) This example describes one preferred method of determining nitrate and nitrite concentrations. Nitric oxide generation was monitored indirectly by levels of nitrite/nitrate (NO2^−/NO3^−) released into the culture medium as determined by the diazotization reaction of Griess with NaNO2 as standard Briefly, 50 μl aliquots of cell culture supernatants from each sample were mixed with one volume of Griess reagent [1% sulfanilamide; 0.1% naphthylethylene diamine dihydrochloride; 2.5% H3PO4] and incubated at room temperature for 10 min. The absorbance at 550 nm was measured in an automated plate reader (Emax, Molecular Devices, Sunnyvale, Calif.). Nitrite concentrations were calculated by comparison with OD550 values of standard solutions of sodium nitrite prepared in culture medium.

[2] = test system: AD10 cells; experiment: Fas-mediated cytotoxicity (CH11, LDH release), AD10 cells
Protocol: (§3) In a preferred embodiment, A2780 and AD10 cells (1×10^4 cells/well) were cultured in 96-well plates supplemented with 10%FCS and pretreated with increasing concentrations of IFN-γ (0, 10, 100 and 1000 U/mL) 18 h prior to performing the cytotoxicity assay with increasing concentrations of the anti-Fas agonist antibody CH11 (0, 0.01, and 0.1 μg/mL).
(§4) Now also referring to FIGS. 3A and B, therein the role of iNOS in the mechanism of sensitization to Fas-mediated cytotoxicity of ovarian carcinoma cells is illustrated. Ovarian carcinoma cells, A2780 and AD10, were respectively incubated in the presence or in the absence of the competitive NOS inhibitor L-NMA (1 mM) 6 h prior to IFN-γ treatment. […] Furthermore, it is herein illustrated that the parental cell line A2780, which is not able to express iNOS upon IFN-γ stimulation, was not sensitized at the same level when compared with the adriamycin resistant cell line AD10, which is induced by IFN-γ alone to express iNOS.
(§5) The role of the endogenously generated NO in the IFN-γ-mediated sensitization to Fas-induced apoptosis was corroborated by the use of an exogenous source of NO, which mimics the production of NO by iNOS. […]
(§6) This example describes a preferred method of determining cytotoxicity. Sensitization to Fas-mediated apoptosis was assessed using the agonist anti-Fas monoclonal antibody CH11(IgM) [0.01, 0.1 and 1 μg/mL] […] After the initial incubation for each different experimental condition, released LDH into the culture supernatants was measured with a 30-minute coupled enzymatic assay which results in the conversion of a tetrazolium salt (INT) into a red formazan product that is read at 490 nm in an automated plate reader (Emax, Molecular Devices, Sunnyvale, Calif.). Percentage cytotoxicity was calculated using the spontaneous release-corrected OD as follows: % cytotoxicity=(OD of experimental well/OD of maximum release control well)×100.

[3] = test system: A2780 cells; experiment: Fas-mediated cytotoxicity (CH11, LDH release), A2780 cells
Protocol: as §3, §4, §5, §6

[4] = test system: AD10 cells; experiment: Apoptosis by acridine orange/ethidium bromide staining, AD10 cells
Protocol: Now referring to FIGS. 5a through f, sensitization of AD10 to CH11 (Fas-ligand agonist)-mediated cytotoxicity was due to apoptosis. The morphological pattern was examined by staining the ovarian carcinoma cells with acridine orange/ethidium bromide (AO/EB).
This example describes one preferred embodiment for determining apoptosis through acridine orange/ethidium bromide staining. Characteristic apoptotic morphological changes were assessed by fluorescent microscopy using the acridine-orange and ethidium bromide staining (AO/EB) method. Briefly, adherent cells, under different experimental conditions, were cultured in 24 wells plates, and washed with PBS once prior to staining. Monolayers of adherent cells were covered with 100 μl of AO/EB solution (4 μg/mL of each). Immediately after adding the AO/EB solution, each sample was examined under an inverted/fluorescent microscope.

[5] = test system: Fas receptor mRNA in AD10 cells; experiment: Fas receptor mRNA expression by RT-PCR, AD10 cells
[6] = test system: Fas receptor protein in AD10 cells; experiment: Fas receptor protein level by Western blot, AD10 cells; conditions: FIG. 6C
Protocol: Now referring to FIG. 6C, the upregulation of Fas receptor was corroborated by Western blot. IFN-γ induced AD10 cells (1×10^7/plate) were cultured in a 100-mm plate supplemented with 10% FCS.
This example describes one preferred method of determining protein expression. Cell extracts for iNOS and Fas receptor analysis were prepared by lysing 5×10^6 cells in 1 mL phosphate buffer solution [10 mM EDTA, 1% triton X-100, 1 mM Phenylmethylsulfonyl fluoride (PMSF) and 0.01% leupeptin]. Cell lysates were boiled (3 min) with 1 volume gel loading buffer [50 mM Tris/10% sodium dodecyl sulfate (SDS)/10% glycerol/10% 2-mecaptoethanol/2 mg/mL bromophenol blue] and centrifuged at 1×10^4 g for 10 min. Protein concentrations of the supernatants were determined according to Bradford, and total protein equivalents for each sample were separated on 12% SDS-polyacrylamide minigels (Bio-Rad, Richmond, Calif.) and transferred to nitrocellulose membranes (Amersham Corp., Arlington Heights, Ill.). Nonspecific immunoglobulin G (IgG) binding sites were blocked with 5% dried milk protein, and samples were then incubated with the antibody to iNOS [1:1000] (Transduction Laboratories, Lexington, Ky.) or CD95 [1:500] (PharMingen, San Diego, Calif.).

[7] = test system: Fas surface molecule on AD10 cells; experiment: Fas surface molecule expression by flow cytometry, AD10 cells
Protocol: (§7) This example describes one preferred method of separating and sorting cells through fluorescence-activated cell sorting (FACS). Surface Fas antigen expression on tumor cells was determined by flow cytometry. Briefly, harvested cells were washed with cold buffer consisting of PBS without Ca^++ or Mg^++ with 2% heat-inactivated FCS and 0.1% sodium azide. 2×10^5 cells per sample were pretreated with human AB serum (Gemini Bioproducts, Calabasas, Calif.) for 1 h, washed twice and resuspended in 50 μl of PBS. The cells were incubated with 10 μg/mL of anti-Fas monoclonal antibody FITC-conjugated (PharMingen, San Diego, Calif.) or isotype control antibody for 1 h. The cells were then washed twice and fixed in 2% paraformaldehyde solution (Sigma Chemical Co., St. Louis, Mo.) and flow cytometry was conducted all the FACScan facility of the UCLA Department of Microbiology and Immunology.

[8] = test system: iNOS mRNA in AD10 ovarian carcinoma cells; experiment: iNOS mRNA expression by semiquantitative RT-PCR in AD10 cells; conditions: 18 hours, FIG. 1A
[9] = test system: iNOS expression in A2780 ovarian carcinoma cell line; experiment: iNOS expression in A2780 cells; conditions: parental A2780 cell line, data not shown
[10] = test system: NO generation in A2780 cells; experiment: NO generation upon IFN-γ stimulation, A2780 cells
Protocol: as §1, §2

[11] = test system: Fas surface molecule on A2780 cells; experiment: Fas surface molecule expression by flow cytometry, A2780 cells; conditions: A2780, FIG. 6D legend
Protocol: as §7

Molecule: CNC(=N)NCCC[C@H](N)C(=O)O [L-NMA, N^G-Monomethyl-L-arginine]
- effect of NOS inhibitor on IFN-γ-induced NO2-/NO3- generation ([1]; L-NMA 1.0 mM prior to IFN-γ induction): blocking the generation of NO2^−/NO3^−
- effect of NOS inhibition on IFN-γ-mediated sensitization to Fas-mediated apoptosis ([2]; AD10, L-NMA 1 mM 6 h prior to IFN-γ, FIG. 3B): significantly decreased
- effect of NOS inhibition on IFN-γ-mediated sensitization to Fas-mediated apoptosis ([3]; A2780, L-NMA 1 mM 6 h prior to IFN-γ, FIG. 3A): did not respond to NOS blocking
- frequency of cells undergoing apoptosis with NOS inhibitor ([4]; AD10, L-NMA 1 mM 6 h prior to IFN-γ pretreatment, then CH11): significantly reduced
- Fas mRNA expression with NOS blocking ([5]; AD10, IFN-γ 10 and 100 U/mL, L-NMA 1.0 mM, 24 hours, FIG. 6B): markedly reduced
- IFN-γ mediated upregulation of Fas protein level in presence of NOS inhibitor [6]: markedly reduced
- IFN-γ-increased Fas surface expression with NOS inhibitor ([7]; AD10, IFN-γ 10 U/mL, FIG. 6D): partially blocked

Molecule: IFN-γ: human recombinant IFN-γ, gamma interferon cytokine
- IFN-γ concentration at which significant levels of iNOS mRNA were observed ([8]; 1% FCS): 1 U/mL
- IFN-γ concentration at which plateau of iNOS mRNA expression was reached [8]: 100 U/mL
- iNOS expression upon IFN-γ treatment [9]: not possible to detect any iNOS expression
- production of NO (nitrites and nitrates in culture medium) upon IFN-γ ([1]; IFN-γ 0 to 1000 U/ml, 18 hours): can be induced by IFN-γ to produce NO by iNOS
- NO generation upon IFN-γ stimulation [10]: cannot generate NO
- frequency of cells undergoing apoptosis vs untreated control group ([4]; AD10, IFN-γ 18 h then CH11 0.1 μg/mL 6 h): greater frequency of cells undergoing apoptosis
- Fas protein level with IFN-γ [6]: upregulation of Fas protein level
- expression of Fas surface molecule vs untreated control cells ([7]; AD10, IFN-γ 10 U/mL, 18 hours, FIG. 6D): increased expression
- expression of Fas surface molecule with IFN-γ [11]: increased expression

Molecule: CC(=O)N[C@H](C(=O)O)C(C)(C)SN=O (racemic) [SNAP, S-Nitroso-N-acetylpenicillamine]
- sensitization to Fas-mediated cytotoxicity by NO donor ([2]; AD10, NO donor 10 and 100 μM for 24 h before CH11, LDH release, FIG. 4B): sensitized
- sensitization to Fas-mediated cytotoxicity by NO donor ([3]; A2780, NO donor 10 and 100 μM for 24 h before CH11, LDH release, FIG. 4A): sensitized
- number of apoptotic cells, NO donor alone ([4]; AD10, NO donor alone, no CH11): did not increase the number of apoptotic cells
- frequency of cells undergoing apoptosis, NO donor prior to CH11 ([4]; AD10, SNAP prior to exposure to CH11): increased the frequency of cells undergoing characteristic apoptosis
- Fas receptor mRNA expression with NO donor ([5]; AD10, SNAP 0, 1, 10 and 100 μM, 18 h, FIG. 6A): upregulated Fas receptor mRNA expression
- Fas protein level after addition of SNAP to IFN-γ plus NOS inhibitor [6]: restored
- Fas surface expression after NO donor added to IFN-γ plus NOS inhibitor ([7]; AD10, FIG. 6D): restored

B1: IFN-γ: human recombinant IFN-γ, gamma interferon cytokine (protein, UniProt P01579 24-161, looked up)
Interferon gamma: QDPYVKEAENLKKYFNAGHSDVADNGTLFLGILKNWKEESDRKIMQSQIVSFYFKLFKNFKDDQSIQKSVETIKEDMNVKFFNSNKKKRDDFEKLTNYSVTDLNVQRKAIHELIQVMAELSPAAKTGKRKRSQMLFRG
- sensitization to Fas-mediated cytotoxicity compared with untreated control group ([2]; AD10, IFN-γ pretreatment 18 h, then CH11, FIG. 2B): 10 fold
- capacity of being sensitized by IFN-γ to Fas-mediated cytotoxicity ([3]; A2780 compared with AD10, IFN-γ 18 h then CH11, FIG. 2A): lower capacity of being sensitized
